Where two headings read alike, the source gives them in different places. Values belong to the compound of their own block, whether it stands above or below them.
Tests used:
[1] = tested on: peritoneal macrophages (pMΦ); experiment: Phagocytosis assay with fluorescence-labeled zymosan particles in peritoneal macrophages; assay type: cell-based, mouse
Procedure: (§1) Peritoneal macrophage culture. Peritoneal macrophages were collected by peritoneal lavage with 10 ml warm PBS containing of 1 mM EDTA. Cells were incubated in DMEM supplemented with 10% FBS at 37° C. for 2 h in petri dish and washed with PBS to eliminate non-adherent cells. The adherent cells were used as peritoneal macrophages. Peritoneal macrophages were used after 3 days of culture.
Phagocytosis assay. The phagocytosis assay was modified from a previously described protocol (Sommer C, and Kress M. NeurosciLett. 2004, 361, 184-187). pHrodo® Red Zymosan Bioparticles (diameter, 3 μm, Thermo scientific, Catalog: P35364) were rinsed and reconstituted in RPMI medium. Particles were centrifuged (1 min at 100 g) onto adherent peritoneal macrophages at a ratio of 10:1 to synchronize binding and internalization. After 30 min incubation at 37° C., non-adherent beads were removed with cold PBS and cells were fixed with 2% formalin. Four optic fields were photographed with epifluorescence microscopy. Quantification of zymosan particles ingested by MΦ was conducted on at least 200 macrophages/condition/well, and triplicates were included for statistical analysis.
We investigated whether iCa^2+ increases would trigger phagocytosis of pathogens such as zymosan by macrophages. Zymosan is a well-studied pathogen and activates TLR2 to trigger inflammation and inflammatory pain in rodents after intraplantar injection. We tested phagocytosis in pMΦ using fluorescence-labeled zymosan particles.

GPR37 [2] = target: T1, GPR37 (Homo sapiens, UniProt O15354); experiment: Ca2+ imaging (Fura-2AM) in HEK293 cells transfected with human GPR37 cDNA; assay type: cell-based; settings: for intracellular Ca2+ (iCa2+) increase: 3 min, GPR37-expressing HEK293 cells; for effect on NPD1-induced iCa2+ increase: NPD1 30 nM, PTX 1 μg/mL 16 h before, thapsigargin 1 μM 3 min, EGTA 10 mM 3 min
T1 construct: host or cells: HEK293 flip-in cells
T1 sequence (O15354 27-613): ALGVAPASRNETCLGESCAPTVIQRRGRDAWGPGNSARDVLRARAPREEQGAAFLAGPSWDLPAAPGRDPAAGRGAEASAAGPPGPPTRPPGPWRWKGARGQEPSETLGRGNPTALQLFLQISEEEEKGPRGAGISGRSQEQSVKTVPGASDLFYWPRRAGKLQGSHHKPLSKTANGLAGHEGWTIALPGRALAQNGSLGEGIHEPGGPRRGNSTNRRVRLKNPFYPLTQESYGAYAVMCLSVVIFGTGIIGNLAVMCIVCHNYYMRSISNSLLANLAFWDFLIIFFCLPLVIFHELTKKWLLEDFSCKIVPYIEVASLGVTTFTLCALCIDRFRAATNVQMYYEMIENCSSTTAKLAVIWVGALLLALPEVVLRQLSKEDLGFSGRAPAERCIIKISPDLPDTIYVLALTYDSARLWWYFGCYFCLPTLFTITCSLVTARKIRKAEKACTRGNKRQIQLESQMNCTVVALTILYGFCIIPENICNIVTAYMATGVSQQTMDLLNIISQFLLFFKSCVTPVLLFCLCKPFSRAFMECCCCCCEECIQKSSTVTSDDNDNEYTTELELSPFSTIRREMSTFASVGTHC
Procedure: (§2) HEK cell culture and transfection. HEK293 flip-in cell line was purchased from Duke Cell Culture Facility. Cells were cultured in high glucose (4.5 g/L) Dulbecco's Modified Eagle's Medium containing 10% (v/v) fetal bovine serum (Gibco). Transfection (2 μg cDNA) was performed with Lonza electroporation (Lonza) at 70% confluency and the transfected cells were cultured in the same growth medium for 48 h before use. The hGPR37-V5 pLenti304 plasmids were obtained from DNASU (Tempe, AZ), and hGPR32, hChemR23 and hALX pcDNA3 plasmids were provided by Dr. Serhan from Harvard Medical School, Boston.
(§3) Calcium imaging. HEK 293 cells, with or without transfection of Gpr37, GPR32, ChemR23 or ALX1 cDNA, were loaded with 5 μM Fura-2AM (Invitrogen) for 1 hour and then were resuspended in normal external buffer (140 NaCl, 5 KCl, 2 CaCl2, 2 MgCl2, 10 HEPES, in mM, titrated to pH 7.4 with NaOH) or external Ca^2+-free buffer (140 NaCl, 2 MgCl2, 5 EGTA, 10 HEPES, in mM, titrated to pH 7.4 with NaOH). Peritoneal macrophages, collected from WT and Gpr37 KO mice, were loaded with 5 μM […] (Invitrogen) for 1 hour and then were resuspended in normal external buffer. Images of the HEK 293 cells and macrophages with the excitation wavelength of 340 nm and 380 nm were captured with a cooled Digital CMOS camera (ORCA-Flash 4.0, Hamamatsu Photonics K.K, Japan). The ratio of fluorescence intensity of the two wavelengths in each experiment was analyzed using MetaFluor (Molecular Devices). The Shutter speed and wavelength was controlled by Lambda DG-4 system (Sutter instrument Co., Novato, CA). Values from each of the experiments were normalized to the baseline ratio of 340/380 nm.
In order to investigate how GPR37 regulates intracellular signaling, we conducted Ca^2+ imaging in HEK293 cells that overexpress GPR37. […] Thus, we hypothesized TX14 and SPM may activate the same receptors and elicit similar intracellular responses. We transfected HEK293 cells with human GPR37 cDNA, loaded these cells with Ca^2+ dye Fura-2AM, and stimulated them with TX14 and various SPMs, using ionomycin (2 μM) as a positive control for Ca^2+ influx (FIG. 2A, FIG. 2B, FIG. 2C).

GPR37 [3] = target: T2, GPR37 (Mus musculus, UniProt Q9QY42); experiment: Ca2+ imaging (Fluo-4AM) in peritoneal macrophages (pMΦ) from WT and Gpr37−/− mice; assay type: cell-based; settings: PTX 1 μg/mL, 16 h; pMΦ
T2 sequence (Q9QY42 27-600): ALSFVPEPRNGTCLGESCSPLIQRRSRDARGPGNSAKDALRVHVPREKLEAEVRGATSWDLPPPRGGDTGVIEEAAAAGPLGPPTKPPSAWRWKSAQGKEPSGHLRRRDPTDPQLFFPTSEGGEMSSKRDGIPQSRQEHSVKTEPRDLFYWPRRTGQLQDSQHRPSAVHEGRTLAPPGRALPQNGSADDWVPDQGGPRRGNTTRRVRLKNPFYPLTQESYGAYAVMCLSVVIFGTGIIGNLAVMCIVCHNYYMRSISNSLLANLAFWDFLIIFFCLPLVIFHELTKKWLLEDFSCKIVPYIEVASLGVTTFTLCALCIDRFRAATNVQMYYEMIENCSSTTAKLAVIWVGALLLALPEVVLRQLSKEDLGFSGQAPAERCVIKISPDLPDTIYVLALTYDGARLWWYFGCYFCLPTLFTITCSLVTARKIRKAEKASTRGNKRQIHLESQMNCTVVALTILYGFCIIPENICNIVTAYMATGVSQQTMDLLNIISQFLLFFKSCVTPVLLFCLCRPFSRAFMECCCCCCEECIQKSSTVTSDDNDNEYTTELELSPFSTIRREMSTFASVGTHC
Procedure: as §1, §3
(§4) Next, we conducted GPR37-mediated Ca^2+ imaging in native pMΦ from WT and Gpr37^−/− mice using Fluo-4AM as a Ca^2+ indicator, since this dye works better than Fura-2AM for pMΦ. […] As compared to iCa^2+ increase in GPR37-expressing HEK293 cells, NPD1 trigger a slow-onset but more persistent Ca^2+ response in pMΦ (FIG. 2B and FIG. 2G). A relatively rapid calcium response in HEK293 cells may result from over-expression of GPR37. A sustained iCa^2+ increase in pMΦ may result from the expression of transient receptor potential (TRP) ion channels in these immune cells. It is noteworthy that macrophages express TRPV2 or TRPM2, which are involved in phagocytosis during bacterial infection. […] NPD1-triggered iCa^2+ increase in pMΦ is also Gi-dependent, since PTX blocked this increase (FIG. 2H). For comparison, ATP-evoked iCa^2+ increase was not altered in GPR37-deficient pMΦ (FIG. 2H).

ALX = target: T3, ALX (Homo sapiens, UniProt P25090); experiment: Ca2+ imaging (Fura-2AM) in HEK293 cells transfected with ALX cDNA; assay type: cell-based; settings: HEK293 cells expressing ALX
T3 construct: host or cells: HEK293 flip-in cells
T3 sequence (P25090 1-351): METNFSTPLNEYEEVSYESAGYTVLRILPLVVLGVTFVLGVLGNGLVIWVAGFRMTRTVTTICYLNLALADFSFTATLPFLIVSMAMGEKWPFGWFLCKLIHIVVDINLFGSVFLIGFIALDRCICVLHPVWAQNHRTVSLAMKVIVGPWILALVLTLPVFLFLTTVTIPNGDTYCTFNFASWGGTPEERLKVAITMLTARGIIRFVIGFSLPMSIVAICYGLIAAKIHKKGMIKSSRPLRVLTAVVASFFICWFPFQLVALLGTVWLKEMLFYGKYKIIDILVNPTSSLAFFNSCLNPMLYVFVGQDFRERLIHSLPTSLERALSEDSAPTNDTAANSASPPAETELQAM
Excerpt: (§5) FIG. 10A-FIG. 10C. Characterization of intracellular Ca^2+ changes in HEK293 cells expressing ChemR23, GPR32, and ALX. Ca^2+ imaging with Fura-2AM indicator showing iCa^2+ levels in HEK293 cells transfected with ChemR23 (FIG. 10A), GPR32 (FIG. 10B), and ALX (FIG. 10C) cDNAs. Note that NPD1 fails to elicit iCa^2+ increase in HEK293 cells expressing ChemR23, GPR32, and ALX. […] ATP is included as a positive control. *P<0.05, compared with baseline n=44˜97 cells from 3 cultures. All the data are expressed as mean±s.e.m.
as §2, §3
Several SPM receptors have been identified such as ChemR23 for RvE1, GPR32 for RvD1, and ALX for lipoxin A. We transfected human cDNAs of ChemR23, GPR32, and ALX in HEK293 cells and checked Ca^2+ responses following the treatment of each SPM.

GPR37 [4] = experiment: Ca2+ imaging (Fluo-4AM) in peritoneal macrophages (pMΦ) from WT and Gpr37−/− mice; assay type: cell-based, mouse; settings: GPR37-deficient pMΦ vs WT
Procedure: as §1, §3, §4

ChemR23 = target: T4, ChemR23 (Homo sapiens, UniProt Q99788); experiment: Ca2+ imaging (Fura-2AM) in HEK293 cells transfected with ChemR23 cDNA; assay type: cell-based; settings: 1 μM; HEK293 cells expressing ChemR23
T4 construct: host or cells: HEK293 flip-in cells
T4 sequence (Q99788 1-373): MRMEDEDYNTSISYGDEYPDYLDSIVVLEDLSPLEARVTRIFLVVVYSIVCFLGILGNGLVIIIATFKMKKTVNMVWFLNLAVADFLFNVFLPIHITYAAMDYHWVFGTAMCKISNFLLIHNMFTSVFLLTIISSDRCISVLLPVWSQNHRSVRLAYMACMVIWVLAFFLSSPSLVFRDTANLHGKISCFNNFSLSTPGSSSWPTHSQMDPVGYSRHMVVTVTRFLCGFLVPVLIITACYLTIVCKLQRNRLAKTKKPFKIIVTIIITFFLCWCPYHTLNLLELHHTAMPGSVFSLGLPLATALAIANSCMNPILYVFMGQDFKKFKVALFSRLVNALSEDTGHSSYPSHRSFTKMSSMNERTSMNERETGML
Excerpt: as §5, §2
as §3, with “Values from each of the experiments were normalized to the baseline ratio of 340/380 nm.” left out

GPR32 = target: T5, GPR32 (Homo sapiens, UniProt O75388); experiment: Ca2+ imaging (Fura-2AM) in HEK293 cells transfected with GPR32 cDNA; assay type: cell-based; settings: 1 μM; HEK293 cells expressing GPR32
T5 construct: host or cells: HEK293 flip-in cells
Excerpt: as §5, §2
as §3, with “Values from each of the experiments were normalized to the baseline ratio of 340/380 nm.” left out

[5] = LY294002 50 μM, U0126 10 μM, PTX 1 μg/mL, BAPTA-AM 10 μM

T5 sequence (O75388 whole entry): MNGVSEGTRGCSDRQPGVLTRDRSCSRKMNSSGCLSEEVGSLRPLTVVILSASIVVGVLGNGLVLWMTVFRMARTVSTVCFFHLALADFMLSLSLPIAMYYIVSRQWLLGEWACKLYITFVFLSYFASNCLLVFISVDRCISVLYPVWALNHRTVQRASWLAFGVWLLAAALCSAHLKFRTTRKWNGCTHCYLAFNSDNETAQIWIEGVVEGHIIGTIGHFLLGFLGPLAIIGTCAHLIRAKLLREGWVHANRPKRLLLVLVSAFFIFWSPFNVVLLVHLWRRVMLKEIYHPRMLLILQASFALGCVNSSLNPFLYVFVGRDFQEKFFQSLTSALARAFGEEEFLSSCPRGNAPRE

Compound: C[C@H](CCC(=O)O)C[C@H](C)C[C@H](C)C(=O)/C=C(\O)[C@H](C)C[C@H](C)C/C=C/[C@@H](C)[C@@H](O)[C@@H](C)[C@@H](O)C[C@@H]1CC[C@@](C)([C@H]2CC[C@@](C)([C@@H](C)O)O2)O1 [ionomycin]
- phagocytosis ([1]; 2 μM, both WT and Gpr37 KO mice): markedly increased phagocytosis

- intracellular Ca2+ (iCa2+) increase (GPR37 [2]; 100 nM): failed to increase iCa^2+
Compound: CC/C=C\C[C@H](O)[C@H](O)/C=C/C=C/C=C\C=C\[C@@H](O)C/C=C\CCC(=O)O [RvD2]

Compound: pertussis toxin
- effect on NPD1-induced iCa2+ increase (GPR37 [2]): completely blocked
- effect on NPD1-triggered iCa2+ increase (GPR37 [3]): blocked
- effect on NPD1-induced phagocytosis [1, 5]: inhibited

Compound: O=C(O)CN(CCOCCOCCN(CC(=O)O)CC(=O)O)CC(=O)O [EGTA]
- effect on NPD1-induced iCa2+ increase (GPR37 [2]): inhibited

- intracellular Ca2+ (iCa2+) increase (GPR37 [2]; 100 nM): failed to increase iCa^2+
- iCa2+ increase / Ca2+ response (ALX): failed to evoke Ca^2+ responses
Compound: CCCCC[C@H](O)/C=C/C=C\C=C\C=C\[C@@H](O)[C@@H](O)CCCC(=O)O [lipoxin A1]

- effect on NPD1-induced iCa2+ increase (GPR37 [2]): inhibited
Compound: CC(=O)OCOC(=O)CN(CC(=O)OCOC(C)=O)c1ccccc1OCCOc1ccccc1N(CC(=O)OCOC(C)=O)CC(=O)OCOC(C)=O [BAPTA-AM]
- effect on baseline phagocytosis ([1]; BAPTA-AM 10 μM): blocked
- effect on NPD1-induced phagocytosis [1, 5]: blocked

Compound: Nc1ncnc2c1ncn2[C@@H]1O[C@H](COP(=O)(O)OP(=O)(O)OP(=O)(O)O)[C@@H](O)[C@H]1O [ATP]
- ATP-evoked iCa2+ increase (GPR37 [4]): not altered

Compound: C/C=C(/C)C(=O)O[C@H]1C(C)=C2[C@H]([C@@H]1OC(=O)CCCCCCC)[C@@](C)(OC(C)=O)C[C@H](OC(=O)CCC)[C@@]1(O)[C@H]2OC(=O)[C@@]1(C)O [thapsigargin]
- effect on NPD1-induced iCa2+ increase (GPR37 [2]): inhibited

Compound: N#CC(=C(/N)Sc1ccccc1N)/C(C#N)=C(\N)Sc1ccccc1N [U0126]
- effect on NPD1-induced phagocytosis [1]: inhibited

- Ca2+ response (ALX; 100 nM): fail to evoke Ca^2+ responses
Compound: Annexin 1: SPM ligand for ALX, from Anaspec (AMVSEFLKQAWFIENEEQEYVQTVK)

- Ca2+ response (ChemR23): fail to evoke Ca^2+ responses
- Ca2+ response (GPR32): fail to evoke Ca^2+ responses
- Ca2+ response (ALX; 1 μM): fail to evoke Ca^2+ responses
Compound: CC/C=C\C/C=C\C/C=C\C/C=C\C/C=C\CCCC(=O)O [EPA]
- intracellular Ca2+ (iCa2+) increase (GPR37 [2]; 1 μM): Neither did the precursors of these SPMs (DHA and EPA), at a much higher concentration (1 μM), evoked calcium responses

From patent US12521356B2, “Compositions and methods for treating pain, inflammation, infection, malaria, and sepsis” (Duke University, priority 2018, dated 2026)
